Source: ChEMBL document CHEMBL1149453, “Thyroid receptor ligands. Part 4: 4'-amido bioisosteric ligands selective for the thyroid hormone receptor beta” (Bioorg Med Chem Lett, 2006)

Assays:
[1] = target: T1, Thyroid hormone receptor alpha (Homo sapiens, UniProt P10827); experiment: Binding affinity to human thyroid hormone receptor alpha 1
T1 sequence (P10827 whole entry): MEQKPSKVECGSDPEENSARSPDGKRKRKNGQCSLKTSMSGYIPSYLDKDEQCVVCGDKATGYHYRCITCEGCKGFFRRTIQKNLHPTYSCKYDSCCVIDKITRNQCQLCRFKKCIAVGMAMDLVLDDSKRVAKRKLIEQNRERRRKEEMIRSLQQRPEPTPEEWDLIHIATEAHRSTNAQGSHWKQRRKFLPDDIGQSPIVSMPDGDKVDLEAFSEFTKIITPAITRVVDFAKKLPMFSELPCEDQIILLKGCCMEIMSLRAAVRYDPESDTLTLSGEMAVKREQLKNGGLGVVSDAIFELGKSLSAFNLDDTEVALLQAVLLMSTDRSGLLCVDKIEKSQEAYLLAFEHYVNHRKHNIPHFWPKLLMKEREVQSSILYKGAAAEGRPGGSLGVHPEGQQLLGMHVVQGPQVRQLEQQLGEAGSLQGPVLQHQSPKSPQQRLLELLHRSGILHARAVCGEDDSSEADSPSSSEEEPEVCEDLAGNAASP

[2] = target: T2, Thyroid hormone receptor beta (Homo sapiens, UniProt P10828); experiment: Binding affinity to human thyroid hormone receptor beta 1
T2 sequence (P10828 whole entry): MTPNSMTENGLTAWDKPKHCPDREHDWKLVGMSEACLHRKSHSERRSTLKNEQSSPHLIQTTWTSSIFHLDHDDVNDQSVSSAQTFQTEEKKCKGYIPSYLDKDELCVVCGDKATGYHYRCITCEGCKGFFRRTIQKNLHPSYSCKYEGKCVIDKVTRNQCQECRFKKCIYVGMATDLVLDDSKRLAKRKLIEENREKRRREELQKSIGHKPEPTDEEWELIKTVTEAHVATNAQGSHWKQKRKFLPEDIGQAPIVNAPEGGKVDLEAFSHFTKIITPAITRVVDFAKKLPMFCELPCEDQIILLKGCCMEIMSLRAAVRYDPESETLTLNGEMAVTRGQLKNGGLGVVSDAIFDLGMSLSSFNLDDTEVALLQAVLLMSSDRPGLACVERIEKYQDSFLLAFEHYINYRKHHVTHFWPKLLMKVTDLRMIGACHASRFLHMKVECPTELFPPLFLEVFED

[3] = target: Thyroid hormone receptor (Homo sapiens) (UniProt P10827+P10828); experiment: Selectivity for human thyroid hormone receptor beta 1 over thyroid hormone receptor alpha 1; format: protein-complex assay

| Compound | IC50 [1] | IC50 [2] | Ratio IC50 [3] |
| --- | --- | --- | --- |
| CCC(=O)Nc1ccc(Oc2c(Cl)cc(CC(=O)O)cc2Cl)cc1Br | 3300 nM | 140 nM | 14 |
| CCC(CC)C(=O)Nc1ccc(Oc2c(Cl)cc(CC(=O)O)cc2Cl)cc1Br | 610 nM | 16 nM | 22 |
| CCC(C)C(=O)Nc1ccc(Oc2c(Cl)cc(CC(=O)O)cc2Cl)cc1Br (stereo not drawn) | 240 nM | 4.3 nM | 33 |
| CCCC(C)C(=O)Nc1ccc(Oc2c(Cl)cc(CC(=O)O)cc2Cl)cc1Br (stereo not drawn) | 1300 nM | 47 nM | 16 |
| CCCC(CCC)C(=O)Nc1ccc(Oc2c(Cl)cc(CC(=O)O)cc2Cl)cc1Br | 1200 nM | 45 nM | 16 |
| CC(C)C(=O)Nc1ccc(Oc2c(Cl)cc(CC(=O)O)cc2Cl)cc1Br | 630 nM | 18 nM | 21 |
